# In patent USRE34165E, “Potent thymopentin analogs” (Ortho Pharmaceutical Corporation, priority 1990, dated 1993):
# Read-outs that look alike come from different tables or passages of the source. Non-standard residues stand in square brackets, D forms with d. Residues, ends and D or L forms follow the SMILES beside them. No end group written: not given here. Aib = CC(C)(N)C(=O)O
# Experiments:
# [1] = system: cell membrane receptor of the intact CEM cell; assay: Cyclic-GMP assay: induction of cyclic-GMP production in intact CEM cells; format: cell-based, human; conditions: for Concentration of c-GMP Produced: 4-5 min at 37° C.; for Result on the cyclic-GMP assay (in words): in comparison with thymopentin
# Description: This biological activity is evidenced by an assay measuring induction of cyclic-GMP production in a human T-cell line in comparison with thymopoietin. The induction of c-GMP production by a test peptide in this assay indicates the ability of the test peptide to bind to the thymopoietin receptor site on the cell and induce thymopoietin-like biological activity. […] Because of the expense of preparing peptides and the rapid degradation of peptides often observed in living systems, peptides such as those herein which have increased potency are greatly prized.
# This assay measures the ability of the test peptide to bind to the cell membrane receptor of the intact CEM cell and selectively stimulate production of cyclic-GMP, as does thymopoietin itself.
# The CEM cell line was obtained from the American Type Culture Collection and was cultured in RPMI-1640 medium supplemented with 10% heat-inactivated fetal bovine serum, 10% heat-inactivated horse serum, 2 mM L-glutamine, and 50 µg/ml gentamycin at 37° C. in a humid atmosphere containing 5 percent CO2, to a final density of 3-4×10^6 cells/ml. At this concentration, the cells were in the early stationary phase of the growth curve and were judged greater than 90% viable by trypan blue exclusion. The cells were grown for four days and harvested. After harvesting, the cells were washed three times in PBS and were resuspended in RPMI-1640 medium at a concentration of 3.12×10^7 cells/ml. After the cells had been allowed to equilibrate at 37° C. for 30 min, various concentrations of the test peptides were added in a volume of 25 μl of medium to 1 ml of cells, the initial concentration of test compound added being selected to yield the desired final concentration of test peptide in the medium. The test peptide was mixed instantly with the cell suspension. The incubation was allowed to proceed in a shaking water bath at 37° C. for 4-5 min and was then terminated by addition of ice-cold trichloroacetic acid (10%; 1 ml).
# The cells in TCA were then homogenized and sonicated to release cyclic nucleotide. The resulting suspension was centrifuged at 3000 g for 20 min at 4° C. and the resulting precipitate was dissolved in 0.1N NaOH and sonicated for a further 30 minutes, after which the protein content was determined by the method of Cadman, et al., Anal. Biochem., 96, 21-23 (1979). The TCA was removed from the supernatant fraction by extracting four times with 5 ml of water-saturated diethyl ether. After the final extraction, the remaining traces of ether were removed from the supernatant fraction by heating it for 10 min in a 50° C. water bath. After lyophilization of the extracted supernatant fraction, it was reconstituted in 50 mM acetate buffer, ph 6.2, for radioimmunoassay of cyclic nucleotide using the assay kit NEX-133, New England Nuclear, Boston, Mass. 02113.
# A conventional competition radioimmunoassay against radio labelled cyclic GMP was conducted to determine the amount of cyclic GMP induced by each concentration of test peptide. Results are shown in FIG. 1 and in the following table, in which representative subject peptides have been assayed in comparison with thymopentin (designated "TP-5") and a "nonsense" peptide H-ASP-ARG-TYR-LYS-VAL-OH.
# [2] = system: isolated thymopoietin cell surface receptor protein from CEM cells; conditions: for Displacement of 125I-TP (in words): comparison peptides
# [3] = Concentration of Peptide 10^0 μg/ml
# [4] = Concentration of Peptide 10^1 μg/ml
# [5] = Concentration of Peptide 10^3 μg/ml
# [6] = Concentration of Peptide 10^4 μg/ml
# [7] = at equivalent concentrations, with thymopoietin 37-45 nonapeptide, 12 h incubation
compound,measurement,setting,value
"CC(C)[C@H](NC(=O)[C@H](CC(=O)O)NC(=O)[C@H](CCCCN)NC(=O)[C@@H](N)CCCN=C(N)N)C(=O)N[C@@H](Cc1ccc(O)cc1)C(=O)O [TP-5, thymopentin] (H-RKDVY-OH)",Concentration of c-GMP Produced,[1]; [3],0 picomoles/ml
same,Concentration of c-GMP Produced,[1]; [4],4.5 picomoles/ml
same,Concentration of c-GMP Produced,[1]; Concentration of Peptide 10^2 μg/ml,9 picomoles/ml
same,Concentration of c-GMP Produced,[1]; [5],12 picomoles/ml
same,Concentration of c-GMP Produced,[1]; [6],14 picomoles/ml
C[C@H](N)C(=O)NCC(=O)N[C@H]1CSSC[C@@H](C(=O)O)NC(=O)[C@H](CO)NC(=O)[C@H]([C@@H](C)O)NC(=O)[C@H](Cc2ccccc2)NC(=O)[C@H]([C@@H](C)O)NC(=O)[C@H](CCCCN)NC(=O)[C@H](Cc2c[nH]c3ccccc23)NC(=O)[C@H](Cc2ccccc2)NC(=O)[C@H](Cc2ccccc2)NC(=O)[C@H](CC(N)=O)NC(=O)[C@H](CCCCN)NC1=O [somatostatin],Displacement of 125I-TP (in words),[2],no detectable displacement
ubiquitin,Displacement of 125I-TP (in words),[2],no detectable displacement
"β-endorphin (YGGFMTSEKSQTPLVTLFKNAIIKNAYKKGE; Beta-endorphin; UniProt P01189 237-267, looked up)",Displacement of 125I-TP (in words),[2],no detectable displacement
"CC(C)[C@H](NC(=O)[C@H](CC(=O)O)NC(=O)[C@H](CCCCN)NC(=O)[C@@H](N)CCCNC(=N)N)C(=O)N[C@@H](Cc1c[nH]cn1)C(=O)O [H--ARG--LYS--ASP--VAL--HIS--OH, Arginyl-Lysyl-Aspartyl-Valyl-Histidine] (H-RKDVH-OH)",Concentration of c-GMP Produced,[1]; [3],0 picomoles/ml
same,Concentration of c-GMP Produced,[1]; [4],9 picomoles/ml
same,Displacement of 125I-TP relative to that caused by thymopoietin self-displacement,[2]; [7],at least 50%
"CC(=O)N[C@@H](CCCNC(=N)N)C(=O)N1CCC[C@H]1C(=O)N[C@@H](CC(=O)O)C(=O)N[C@H](C(=O)N[C@@H](Cc1ccccc1)C(=O)O)C(C)C [α-acetyl-ARG--PRO--ASP--VAL--PHE--OH, N^α -Acetyl-Arginyl-Prolyl-Aspartyl-Valyl-Phenylaline] (Ac-RPDVF-OH)",Concentration of c-GMP Produced,[1]; [3],7 picomoles/ml
same,Concentration of c-GMP Produced,[1]; [4],15 picomoles/ml
same,Displacement of 125I-TP relative to that caused by thymopoietin self-displacement,[2],at least 50%
"N^α -Acetyl-Arginyl-3,4-dehydro-Prolyl-Aspartyl-Valyl-Tyrosineamide",Result on the cyclic-GMP assay (in words),[1],superior results
facteur thymique serique [FTS],Displacement of 125I-TP (in words),[2],no detectable displacement
"CC(C)[C@H](NC(=O)[C@H](CC(=O)O)NC(=O)[C@H](CCCCN)NC(=O)[C@@H](N)CCCNC(=N)N)C(=O)N[C@@H](Cc1c[nH]c2ccccc12)C(N)=O [H-ARG-LYS-ASP-VAL-TRP-NH2, Arginyl-Lysyl-Aspartyl-Valyl-Tryptophan amide] (H-RKDVW-NH2)",Result on the cyclic-GMP assay (in words),[1],superior results
same,Displacement of 125I-TP relative to that caused by thymopoietin self-displacement,[2]; [7],at least 50%
"CC(=O)N[C@@H](CCCNC(=N)N)C(=O)NC(C)(C)C(=O)N[C@@H](CC(=O)O)C(=O)N[C@H](C(=O)N[C@@H](Cc1ccccc1)C(N)=O)C(C)C [N-α-acetyl-ARG-AIB-ASP-VAL-PHE-NH2, Acetyl-Arginyl-α-Aminoisobutyryl-Aspartyl-Valyl-Phenylalaminamide] (Ac-R[Aib]DVF-NH2)",Result on the cyclic-GMP assay (in words),[1],superior results
"CC(C)[C@H](NC(=O)[C@H](CC(=O)O)NC(=O)[C@H](CCCCN)NC(=O)[C@@H](N)CCCNC(=N)N)C(=O)N[C@@H](Cc1ccccc1)C(=O)O [H--ARG--LYS--ASP--VAL--PHE--OH, Arginyl-Lysyl-Aspartyl-Valyl-Phenylalanine] (H-RKDVF-OH)",Concentration of c-GMP Produced,[1]; [3],6 picomoles/ml
same,Concentration of c-GMP Produced,[1]; [4],9 picomoles/ml
same,Displacement of 125I-TP relative to that caused by thymopoietin self-displacement,[2]; [7],at least 50%
"corticotropin-releasing factor (SEEPPISLDLTFHLLREVLEMARAEQLAQQAHSNRKLMEII; ends and bridges not checked; UniProt P06850 154-194, looked up) [CRF]",Displacement of 125I-TP (in words),[2],no detectable displacement
"CC(C)[C@H](NC(=O)[C@H](CCCCN)NC(=O)[C@H](Cc1ccc(O)cc1)NC(=O)[C@H](CCCNC(=N)N)NC(=O)[C@@H](N)CC(=O)O)C(=O)O [H--ASP--ARG--TYR--LYS--VAL--OH, H-ASP-ARG-TYR-LYS-VAL-OH, reference compound] (H-DRYKV-OH)",Concentration of c-GMP Produced,[1]; [5],0 picomoles/ml
same,Concentration of c-GMP Produced,[1]; [6],0 picomoles/ml
same,Concentration of c-GMP Produced,[1]; Concentration of Peptide 10^5 μg/ml,0 picomoles/ml
"CC(=O)N[C@@H](CCCNC(=N)N)C(=O)N1CCC[C@H]1C(=O)N[C@@H](CC(=O)O)C(=O)N[C@H](C(=O)N[C@@H](Cc1ccccc1)C(N)=O)C(C)C [N-α-acetyl-ARG-PRO-ASP-VAL-PHE-NH2, Acetyl-Arginyl-Prolyl-Aspartyl-Valyl-Phenylalanineamide] (Ac-RPDVF-NH2)",Result on the cyclic-GMP assay (in words),[1],superior results
growth hormone,Displacement of 125I-TP (in words),[2],no detectable displacement
"CC(C)[C@H](NC(=O)[C@H](CC(=O)O)NC(=O)[C@H](CCCCN)NC(=O)[C@@H](N)CCCNC(=N)N)C(=O)N[C@@H](Cc1c[nH]c2ccccc12)C(=O)O [H-ARG-LYS-ASP-VAL-TRP-OH, Arginyl-Lysyl-Aspartyl-Valyl-Tryptophan] (H-RKDVW-OH)",Result on the cyclic-GMP assay (in words),[1],superior results
same,Displacement of 125I-TP relative to that caused by thymopoietin self-displacement,[2]; [7],at least 50%
"adrenocorticotropic hormone (SYSMEHFRWGKPVGKKRRPVKVYPNGAEDESAEAFPLEF; Corticotropin; UniProt P01189 138-176, looked up) [ACTH]",Displacement of 125I-TP (in words),[2],no detectable displacement
"CC(C)[C@H](NC(=O)[C@H](CC(=O)O)NC(=O)[C@@H]1CCCN1C(=O)[C@@H](N)CCCNC(=N)N)C(=O)N[C@@H](Cc1ccccc1)C(=O)O [H--ARG--PRO--ASP--VAL--PHE--OH, Arginyl-Prolyl-Aspartyl-Valyl-Phenylalanine] (H-RPDVF-OH)",Concentration of c-GMP Produced,[1]; [3],0 picomoles/ml
same,Concentration of c-GMP Produced,[1]; [4],12 picomoles/ml
same,Displacement of 125I-TP relative to that caused by thymopoietin self-displacement,[2]; [7],at least 50%
